Measurements reported in PubChem BioAssay AID179 (DTP/NCI, 2004).
Where a name gives a salt, the structure may show the parent alone. Calls of active or inactive are those of the source.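 Rule for the calls: active = compounds giving half or more protection of infected cells from virus-caused growth loss, again on retest; inactive = the rest.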 Where a SMILES comes first, the peptide text is derived from it. The star is where a group is joined. Tfa = O=C(C(F)(F)F)*

System: CEM cells HIV-1 protection, formazan growth assay
Assay: NCI AIDS Antiviral Assay
Conditions: for IC50: measured here: growth of uninfected CEM cells
Method: The ability of compounds to protect human CEM cells from HIV-1 infection is measured as a screen for new compounds capable of inhibiting the HIV virus. Five concentrations of drug were tested on uninfected and infected cells and cell growth was measured using a soluble formazan assay. […] Compounds that provided at least 50% protection were retested. Compounds that provided at least 50% protection on retest were listed as moderately active. Compounds that reproducibly provided 100% protection were listed as confirmed active. […] Note that the inability to provide protection could be due to toxicity.

| SMILES | EC50 [µM] | IC50 [µM] | outcome |
| --- | --- | --- | --- |
| C=C(C)C12CC3CC(/C(=N/O)C(C1)/C3=N\O)[C@@]2(C)O (some centres undefined) | > 355 | > 355 | – |
| [Li+] | – | – | inactive |
| O=C(C(=O)n1ccc2ccccc21)c1c[nH]c2ccccc12 | > 200 | > 200 | – |
| O=C(SC1=NCCN1)c1cccc2ccccc12 | > 200 | 28.8 | – |
| CC(C)/C(Cl)=N\OC(=O)Nc1ccc(C#N)cc1 | > 200 | 4.27 | – |
| COC(=O)C1=C(C(=O)OC)C2(C)CCC(=O)C1O2 (centres undefined) | > 200 | > 200 | – |
| CSC(SC)=C(C#N)C(=O)Nc1ccc(C)cc1 | > 200 | 3.63 | – |
| CCOP(=O)(OCC)/C(C#N)=C\c1ccsc1 | > 912 | > 912 | – |
| CC(C)=NNC1=NC(C)(C)P(=O)(N2CCCC2C(=O)O)S1 (centres undefined) | > 135 | 132 | – |
| O=C(OC1(c2ccccc2)OC(=O)c2ccccc21)c1ccccc1C(=O)c1ccccc1 (centres undefined) | – | – | inactive |
| COC(=O)C(=O)C(/C=N/C(=S)Nc1ccc(S(=O)(=O)Nc2nccs2)cc1)=C(\O)c1c(C)[nH]c2ccccc12 | > 200 | 72.4 | – |
| Cc1nnc2sc(/C=C/c3ccccc3)nn12 | – | > 200 | inactive |
| Cc1ccc(S(=O)(=O)NC(=O)OC23COCN2COC3)cc1 | > 759 | 132 | – |
| CC1=C[C@H]2c3c([nH]c4ccccc34)C(c3c[nH]c4ccccc34)[C@H]2CC1 (some centres undefined) | – | – | inactive |
| NC(=O)C(=O)c1ncn(Cc2ccccc2)c1N | > 200 | > 200 | – |
| C=C1CC(COc2ccc3c(C)cc(=O)oc3c2)(c2ccccc2)OC1=O (centres undefined) | > 200 | 0.603 | – |
| O=C1C[C@@H]2[C@@H](C=CC23CC3)N1O | > 1510 | > 1510 | – |
| CCOP(=O)(OCC)C(c1ccc(F)cc1)N(C(=O)NC(F)(F)F)c1ccc(F)cc1 (centres undefined) | > 200 | > 200 | – |
| CCCNC1=C(C(=O)OCC)C(=O)CO1 | > 33.9 | > 33.9 | – |
| CC(=O)N=S(NC(=O)c1ccc(C)cc1)C(Cl)(Cl)Cl (centres undefined) | > 200 | 33.9 | – |
| O=C1NC2c3ccccc3CCC12 (centres undefined) | > 1450 | > 1450 | – |
| O=[N+]([O-])C(=C(Sc1ccccc1)Sc1ccccc1)C(Cl)=C(Cl)Cl | – | – | inactive |
| CC(=O)NC(/C=C\C(=O)O)C(=O)O (centres undefined) | > 200 | > 200 | – |

| SMILES | EC50 [µM] | IC50 [µM] | outcome |
| --- | --- | --- | --- |
| Cc1ccc(SSc2ccc(C)cc2C(=O)O)c(C(=O)O)c1 | > 200 | > 200 | – |
| O=C(O)Cn1cc([N+](=O)[O-])c(=O)c2ccccc21 | > 200 | > 200 | – |
| O=C(O)CC(NC(=O)C(F)(F)F)C(=O)NC(Cc1ccc(O)cc1)C(=O)O (stereo not drawn) (Tfa-Asp-Tyr-OH; configuration not given here) | > 200 | > 200 | – |
| N#CC12CNCC1CN=N2 (centres undefined) | > 200 | > 200 | – |
| O=C(NC(=O)c1ccccc1)Nc1ccccc1 | > 14.1 | > 14.1 | – |
| CCCCC#CCC(C(=O)O)C(=O)O | > 1260 | > 1260 | – |
| CCOC(=O)c1[nH]n(-c2ccccc2)c(=O)c1/C=N/C(=S)NCCc1ccc(OC)c(OC)c1 | > 200 | 51.3 | – |
| N#CN=C1N=S(=O)(c2ccccc2)c2ccccc21 (centres undefined) | > 186 | 162 | – |
| NC(CCOCCP(=O)(O)CCC1C=CC=CC1)C(=O)O (centres undefined) | > 200 | > 200 | – |
| Cc1ccc2ccccc2c1CSc1ncnc2c1ncn2C1OC(CO)C(O)C1O (centres undefined) | > 200 | 24.5 | – |
| COC(=O)Cc1cc(OC)c(OC)cc1Br | > 631 | 513 | – |
| Cn1c(=O)c2c(no[n+]2[O-])n(C)c1=O | > 200 | 13.2 | – |
| CCCCN(CCO)Cc1cc(Nc2c3ccccc3nc3ccccc23)ccc1O | > 63.1 | 20.4 | – |
| O=C(O)C1CC(O)CN1S(=O)(=O)Cc1ccccc1 (centres undefined) | > 200 | > 200 | – |
| CCc1cccc(C)c1NC(=O)C(=O)Cc1nc2ccccc2o1 | > 22.4 | > 22.4 | – |
| C[N+](C)(C)C=NCCCCCCN=C[N+](C)(C)C | > 200 | > 200 | – |
| CCOC(=O)NNC(=O)NCc1cccc(CNC(=O)NNC(=O)OCC)c1 | > 200 | > 200 | – |
| O=C1C[C@H]2CCCN2[C@@H](c2ccccc2)C1 | > 603 | > 603 | – |
| O=C(O)/C=C\C(=O)NCCCNC(=O)/C=C\C(=O)O | > 933 | > 933 | – |
| COC(=O)Cc1c(-c2[nH]c3ccccc3c2CC(=O)OC)[nH]c2ccccc12 | – | – | inactive |
| Nc1nn2cc3c(nc2c1N=Nc1ccc(Cl)cc1)CCC3 | > 151 | > 100 | – |
| CC1=CC(=O)C(=O)C2=C1OC1(C2)C(C)CCC2C3(C)CCC(O)C(C)(C)C3CCC21C (centres undefined) | > 100 | 47.9 | – |
| CC12CC(OC1=O)C(=O)c1ccccc12 (centres undefined) | > 468 | 209 | – |

| SMILES | EC50 [µM] | IC50 [µM] | outcome |
| --- | --- | --- | --- |
| O=C1CC2(CC=CCC23OCCO3)CC(CI)O1 (centres undefined) | > 200 | > 200 | – |
| N#CC(C#N)C(c1ccccc1)c1ccccc1 | – | – | inactive |
| N#CNC(N)=NCCO | > 692 | > 692 | – |
| NS(=O)(=O)c1ccc(NC(=O)COC(=O)c2cccc3c(=O)c4ccccc4[nH]c23)cc1 | – | – | inactive |
| O=c1n(N=S(=O)(c2ccccc2)c2ccccc2)c(=O)n2n1C1C=CC2CC1 | > 200 | > 200 | – |
| O=C1/C(=C/c2ccccc2)CCCC12C(c1ccccc1)N2Cc1ccccc1 (centres undefined) | > 200 | 7.41 | – |
| CC1=C2C(=O)C(C)(C)C=C2C(=O)[C@](C)(O)C12CC2 | – | – | inactive |
| CCCCCCC(O)C/C=C/CCCCCC/C(C(=O)OC)=C(/O)C(=O)OCC (centres undefined) | > 83.2 | > 83.2 | – |
| Cc1cc(O)c2c(c1)C(C13Cc4cc(O)c5c(c4[C@H]1C=C[C@@H](O)[C@H]3O)C(=O)c1cccc(O)c1C5=O)OC2=O (some centres undefined) | – | – | inactive |
| CC(=O)[C@]1(O)Cc2c(O)c3c(c(O)c2[C@@H](OC2CC(N)C(O)C(C)O2)C1)C(=O)c1c(OCc2ccccc2)cccc1C3=O (some centres undefined) | – | – | inactive |
| COC1C(O)CC(OC2CC(Oc3cc4cc5c(c(O)c4c(O)c3C)C(=O)[C@@H](OC3CC(OC4CC(OC6CC(C)(O)C(OC(C)=O)C(C)O6)C(O)C(C)O4)C(O)C(C)O3)[C@H]([C@H](OC)C(=O)[C@@H](O)[C@@H](C)O)C5)OC(C)C2OC(C)=O)OC1C (some centres undefined) | > 6.17 | 0.00195 | – |
| Clc1ccccc1C=NCC1CCC(CN=Cc2ccccc2Cl)CC1 (centres undefined) | > 200 | 9.12 | – |
| CSC(=Nc1ccccc1Cl)NC(=O)c1ccc(Br)cc1 | > 10.2 | > 10.2 | – |
| COc1cc(OC)c2c(=O)c3ccccc3n3c(C(C)O)cc1c23 (centres undefined) | > 200 | 4.79 | – |
| Oc1ccccc1C=Nc1ccccc1S.[Cu+2] | > 151 | 2.57 | – |
| CC(C)N(C(=O)C12C3C4C5(C#N)C3C1(I)C5C42I)C(C)C (centres undefined) | > 14.1 | > 14.1 | – |
| C[C@]12CC[C@H]3[C@@H](CC=C4C[C@@H](O)CC[C@@]43C)[C@@H]1CC[C@@H]2N(CCO)CCO | > 200 | 60.3 | – |
| Cc1ccc2c(n1)C(N(C)C)=CC(=O)C2=O | – | – | inactive |
| COc1ccc(/C(C)=N/Nc2ccc([N+](=O)[O-])cc2[N+](=O)[O-])cc1 | – | – | inactive |
| O=c1[nH]c(O)c(/C=N\C(=S)Nc2cc(Cl)ccc2Cl)c(=O)[nH]1 | > 200 | 162 | – |
| CCOC(=O)C(=O)Nc1ccccc1C | > 34.7 | > 34.7 | – |
| CC(=NCCN(CCN=C(C)c1c(O)cc(C)oc1=O)CCN=C(C)c1c(O)cc(C)oc1=O)c1c(O)cc(C)oc1=O | > 200 | > 200 | – |
| C=C(C=O)[C@@H]1C2OC(=O)C(=C)[C@@H]2CC(O)[C@@]1(C)CC (some centres undefined) | > 151 | 5.89 | – |

| SMILES | EC50 [µM] | IC50 [µM] | outcome |
| --- | --- | --- | --- |
| O=c1c2ccccc2oc2ccccc12.[Cl][Hg][Cl] | > 11.2 | > 11.2 | – |
| CCN1CCC(O)(/C=C/c2cccc(C)c2)C(C(=O)/C=C/c2cccc(C)c2)C1 (centres undefined) | > 200 | 3.55 | – |
| CC[C@@]1(O)C(=O)OCc2c1cc1n(c2=O)Cc2cc3cc(OC)ccc3nc2-1 | > 0.1 | 0.0186 | – |
| O=c1cc(-c2c(O)cc(O)cc2O)oc2cc(O)cc(O)c12 | > 200 | > 200 | – |
| CC(C)CCS(=O)(=O)O | > 200 | > 200 | – |
| CCSC(=O)n1ncc2cc(Cl)ccc21 | > 200 | 30.2 | – |
| NS(=O)(=O)c1nnc(NC(=O)C23CC4CC(CC(C4)C2)C3)s1 | > 200 | 81.3 | – |
| CC(=O)CC1(C)OC(N)=C(C#N)C1(C#N)C#N (centres undefined) | > 200 | 162 | – |
| O=C1CCCC/C(=C/c2ccccc2)N1 | – | – | inactive |
| C/C=C/C(=O)[C@@H](O)C(C)C | – | – | inactive |
| COC(COC(N)=O)C1=C(N2CC2)C(=O)C(C)=C(N2CC2)C1=O (centres undefined) | > 2 | 0.0166 | – |
| O=c1nc2c(c(-c3cccc(Cl)c3)[nH]1)COC/C2=C\c1cccc(Cl)c1 | – | – | inactive |
| CCOC(=O)/C(C#N)=C1\N[C@H](C(=O)OCC)CO1 | > 977 | > 977 | – |
| CCCCCCCCCCCCCCCC(=O)NC(Cc1c[nH]c2ccccc12)C(=O)O (centres undefined) | > 200 | 50.1 | – |
| Cc1ccccc1NC(=O)CSc1nnc(Cc2ccccc2)o1 | > 263 | 234 | – |
| C=C1SC(=Nc2c(C)cccc2C)N(c2nc(Cl)nc(Cl)n2)C12CCCCC2 | > 200 | 162 | – |
| CN(C(=O)/C=C/c1ccccc1)C1C2CN3CCC(O2)C13 (centres undefined) | – | – | inactive |
| COC1=CC(=O)C(OC)=C(C2C(=O)N(C)c3ccccc32)C1=O (centres undefined) | > 200 | 61.7 | – |
| O=C1OC(=O)c2c1ccc1ccccc21 | > 50.1 | > 50.1 | – |
| CC(=O)OC12CC[N+]3(C)CCCCC3C1=Nc1ccccc12 (centres undefined) | > 589 | 479 | – |
| CN(C)CCn1c2ccccc2c2nc3cc4ccccc4cc3nc21 | > 50.1 | 0.363 | – |
